Test results taken from PubChem BioAssay (NCI).
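Tested at 5 concentrations; 48 h exposure; 96-well plates; endpoints linearly interpolated, else capped at highest concentration. The concentration for 50% growth inhibition is given as GI50. The concentration for full growth arrest is given as TGI.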

Experiments:
Experiment in all cases: NCI anticancer screen, dose series, 48 h
[1] = tested on: ACHN renal
[2] = tested on: SF-539 CNS
[3] = tested on: RXF 393 renal
[4] = tested on: UACC-257 melanoma
[5] = tested on: SK-MEL-5 melanoma
[6] = tested on: OVCAR-5 ovarian
[7] = tested on: HL-60(TB) leukemia
[8] = tested on: MOLT-4 leukemia
[9] = tested on: DU-145 prostate
[10] = tested on: MCF7 breast

Structure (SMILES) | TGI [1] | TGI [2] | TGI [3] | TGI [4] | TGI [5] | GI50 [6] | TGI [6] | GI50 [1] | GI50 [7] | TGI [7] | GI50 [2] | GI50 [3] | GI50 [4] | GI50 [5] | GI50 [8] | TGI [8] | GI50 [9] | TGI [9] | GI50 [10] | TGI [10]
COc1ccc2c3c(c(C(=O)O)oc13)C(CCC(=O)O)CC2 (stereo unspecified) | > 100 µM | > 100 µM | > 100 µM | > 100 µM | > 100 µM |  |  |  |  |  |  |  |  |  |  |  |  |  |  | 
c1ccc2c(c1)[O][Sn][O]2 | > 150 µg/mL | > 150 µg/mL | 120 µg/mL | > 150 µg/mL | > 150 µg/mL | > 150 µg/mL | > 150 µg/mL | 24.1 µg/mL | 1.55 µg/mL | 6.37 µg/mL | 26.2 µg/mL | 23.4 µg/mL | > 150 µg/mL | 20.7 µg/mL | 7.16 µg/mL | > 150 µg/mL |  |  |  | 
C/C(CC(=O)Nc1cccc(Cl)c1C)=N\N=C(N)N | > 100 µM | > 100 µM | > 100 µM | > 100 µM | > 100 µM |  | > 100 µM |  |  | > 100 µM |  |  |  |  |  | > 100 µM |  |  |  | 
Cc1csc(CCC(N)C(=O)O)n1 (stereo unspecified) | > 100 µM | > 100 µM | > 100 µM | > 100 µM | > 100 µM |  |  |  |  |  |  |  |  |  |  | > 100 µM |  |  |  | 
CN(C)CCNC(=O)c1cccc2cc3ccc4ccccc4c3nc12 | 0.0561 µM | 0.39 µM | 0.267 µM | 0.535 µM | 0.358 µM |  | 0.706 µM |  |  | 0.27 µM |  |  |  |  |  | 0.0678 µM |  |  |  | 
O=C(CN(/C=C/C(=O)C(F)(F)F)c1ccccc1)c1ccc(F)cc1 | 69.4 µM | 63.8 µM | > 100 µM | 93.2 µM | 12.3 µM | 25.6 µM | 88.7 µM | 22.3 µM |  |  | 28.7 µM | 39.8 µM | 19.1 µM | 1.34 µM | 23.6 µM | 79.8 µM | 50 µM | > 100 µM | 23.2 µM | 59.3 µM
COC(=O)c1cc2ccccc2c2nc3ccccc3c(Cl)c12 | > 100 µM | > 100 µM | > 100 µM | > 100 µM | > 100 µM |  |  |  |  | > 100 µM |  |  |  |  |  | > 100 µM |  |  |  | 
COc1cc2c3c(n(CCCN4CCSCC4)c(=O)c2cc1OC)-c1cc2c(cc1C3=O)OCO2 | > 100 µM | 34.5 µM | 67.8 µM | > 100 µM | > 100 µM | 53.6 µM | > 100 µM | 58.6 µM |  |  | 18.2 µM | 27.3 µM | > 100 µM | > 100 µM | 0.632 µM | 13.4 µM | > 100 µM | > 100 µM | 61.4 µM | > 100 µM
O[C@]12c3ccccc3C1CCCCC2N1CCOCC1 (stereo partly specified) | > 100 µM |  | > 100 µM | > 100 µM | > 100 µM |  |  |  |  | > 100 µM |  |  |  |  |  |  |  |  |  | 
O=C(Nc1ccc(Cl)c(C(F)(F)F)c1)C(=O)c1c(O)c2ccccc2oc1=O | > 100 µM | > 100 µM | > 100 µM | > 100 µM | > 100 µM |  | > 100 µM |  |  |  |  |  |  |  |  | > 100 µM |  |  |  | > 100 µM
Cc1c(C)c2ccc(OC(C)C(=O)O)cc2oc1=O (stereo unspecified) | > 100 µM | > 100 µM | > 100 µM | > 100 µM | > 100 µM |  |  |  |  | > 100 µM |  |  |  |  |  | > 100 µM |  |  |  | 
